Results reported in patent publication US20050261290A1, “Novel compounds of proline and morpholine derivatives” (priority 2004, published 2005).
Like-named read-outs stand apart in the source and are kept apart here.

Molecular target: human 11b-hsd-1 (Homo sapiens, UniProt P28845)
Test: Inhibition constant Ki of human 11b-hsd-1 (3H-cortisone to 3H-cortisol conversion, HPLC)
Format: biochemical
Conditions: for Ki: apparent Ki, read-out: Ki app
Description: In each well, varying amounts of compounds are incubated with a fixed amount of 11b-hsd-1 (4 nM) and NADPH (500 μM) for 30 to 40 min at room temperature in the assay buffer. The enzyme concentration was determined by titration using reversible tight-binding inhibitors. […] The area of 3H-cortisol is calculated and plotted versus time to determine a linear velocity. […] Where vi, and vo are the rates of cortisol formation in the presence and in the absence of inhibitor, respectively, I is the inhibitor concentration and E is the 11 b-hsd-1 concentration in the assay buffer. […] NADPH, Glucose-6-Phosphate (G6P), and Glucose-6-Phosphate dehydrogenase was purchased from Sigma.

human 11b-hsd-1, sequence (P28845 whole entry): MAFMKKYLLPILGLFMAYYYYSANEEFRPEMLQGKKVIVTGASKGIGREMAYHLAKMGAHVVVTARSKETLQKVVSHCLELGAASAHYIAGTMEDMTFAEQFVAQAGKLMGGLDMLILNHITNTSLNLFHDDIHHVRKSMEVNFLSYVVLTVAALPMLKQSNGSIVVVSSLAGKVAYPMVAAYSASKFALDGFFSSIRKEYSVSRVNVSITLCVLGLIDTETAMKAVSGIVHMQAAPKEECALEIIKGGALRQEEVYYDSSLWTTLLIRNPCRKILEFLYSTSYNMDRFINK

Row | SMILES | inhibition at 0.1 µM (compound at 0.1 μM) [%] | Ki (human 11b-hsd-1) [nM] | inhibition at 0.1 µM (0.1 μM compound) [%] | Ki [nM]
1 | CCCN1CCC[C@@H]1C(=O)NC1CCC(F)(F)CC1 [Example 137] | 87 |  |  | 
2 | O=C(NC1C2CC3CC(C2)CC1C3)[C@H]1CCCN1C[C@H]1CCCN1 (stereo partly drawn) [Example 138] | 100 |  |  | 
3 | CC(=O)N1CCC(CN2CCC[C@@H]2C(=O)NC2C3CC4CC(C3)CC2C4)CC1 (stereo partly drawn) [Example 139] | 100 |  |  | 
4 | CS(=O)(=O)N1CCC(CN2CCC[C@@H]2C(=O)NC2C3CC4CC(C3)CC2C4)CC1 (stereo partly drawn) [Example 140] | 100 |  |  | 
5 | O=C(NC1C2CC3CC(C2)CC1C3)[C@H]1CCCN1C[C@@H]1CCCN1 (stereo partly drawn) [Example 141] | 76 |  |  | 
6 | O=C(NC1C2CC3CC(C2)CC1C3)[C@H]1CCCN1CC1CCNC1 (stereo partly drawn) [Example 142] | 100 |  |  | 
7 | CC12C3C4C1C1C2C3C41NC(=O)[C@H]1CCCN1 (stereo partly drawn) [Example 143] | 10 |  |  | 
8 | N#Cc1ccc(CN2CCCC(C(=O)NC3C4CC5CC(C4)CC3C5)C2)cc1 (stereo not drawn) [Example 163] | 100 |  |  | 
9 | CC(C)(C)OC(=O)N1CCCC(C(=O)Nc2ccc3ncccc3n2)C1 (stereo not drawn) [Example 164] | 11 |  |  | 
10 | C[C@H](N)CN1CCC[C@@H]1C(=O)NC1C2CC3CC(C2)CC1C3 (stereo partly drawn) [Example 176] | 100 |  |  | 
11 | CN(C(=O)C1COCCN1Cc1ccccc1)C1CCCCC1 (stereo not drawn) [Example 177] | 92.2 | 18 |  | 
12 | CN(C(=O)C1COCCN1CC1CCCCC1)C1CCCCC1 (stereo not drawn) [Example 180] | 72.1 | 32 |  | 
13 | O=C(NC12CC3CC(CC(C3)C1)C2)C1COCCN1CC1CCCCC1 (stereo not drawn) [Example 181] | 100 | 1.8 |  | 
14 | O=C(NC12CC3CC(CC(C3)C1)C2)C1COCCN1CC1CCCC1 (stereo not drawn) [Example 183] | 100 | 2.1 |  | 
15 | O=C(NC12CC3CC(CC(C3)C1)C2)C1COCCN1CCC1CCOCC1 (stereo not drawn) [Example 185] | 91.3 | 14 |  | 
16 | CC1(C)CC(NC(=O)C2COCCN2Cc2ccccc2)CC(C)(C)C1 (stereo not drawn) [Example 186] | 100 | 1 |  | 
17 | CC1(C)CC(NC(=O)C2COCCN2CC2CCCCC2)CC(C)(C)C1 (stereo not drawn) [Example 188] | 100 | 1.7 |  | 
18 | CC1(C)CC(NC(=O)C2COCCN2CC2CCCC2)CC(C)(C)C1 (stereo not drawn) [Example 190] | 100 | 1.1 |  | 

Continued, values first:

Row | inhibition at 0.1 µM (compound at 0.1 μM) [%] | Ki (human 11b-hsd-1) [nM] | inhibition at 0.1 µM (0.1 μM compound) [%] | Ki [nM] | SMILES
19 | 100 |  |  |  | CS(=O)(=O)N1CCC[C@H]1CN1CCC[C@@H]1C(=O)NC1C2CC3CC(C2)CC1C3 (stereo partly drawn) [Example 135]
20 | 100 |  |  |  | CC(C)CN1CCC[C@@H]1C(=O)NC1CCC(F)(F)CC1 [Example 136]
21 | 87 |  |  |  | O=C(NC1C2CC3CC(C2)CC1C3)[C@H]1CCCN1CC1CCNCC1 (stereo partly drawn) [Example 144]
22 | 96 |  |  |  | C[C@@H](CN1CCC[C@@H]1C(=O)NC1C2CC3CC(C2)CC1C3)NC(=O)OC(C)(C)C (stereo partly drawn) [Example 154]
23 | 8.7 |  |  |  | CC(C)(C)OC(=O)N1CCN(CC2CCCC2)[C@@H](C(=O)NC23CC4CC(CC(C4)C2)C3)C1 [Example 161]
24 | 100 | 1 |  |  | O=C(NC12CC3CC(CC(C3)C1)C2)C1COCCN1Cc1ccccc1 (stereo not drawn) [Example 178]
25 | 100 | 2 |  |  | N#Cc1cccc(CN2CCOCC2C(=O)NC23CC4CC(CC(C4)C2)C3)c1 (stereo not drawn) [Example 179]
26 | 100 | 3.2 |  |  | O=C(NC12CC3CC(CC(C3)C1)C2)C1COCCN1CC1CCOCC1 (stereo not drawn) [Example 184]
27 | 100 | 3 |  |  | CC1(C)CC(NC(=O)C2COCCN2Cc2cccc(C#N)c2)CC(C)(C)C1 (stereo not drawn) [Example 187]
28 | 100 | 1.1 |  |  | CC1(C)CC(NC(=O)C2COCCN2Cc2cccc(OC(F)F)c2)CC(C)(C)C1 (stereo not drawn) [Example 189]
29 | 83.7 | 28 |  |  | CN(C(=O)[C@H]1CCCN1Cc1ccc(Cl)cc1)C1CCCCC1 [Example 191]
30 |  |  | 100 | 9.6 | CN(C(=O)[C@@H]1CSCN1Cc1ccc(Cl)cc1)C1CCCCC1 [Example 192]
